Measured values taken from patent publication US9290451B2 (Hoffmann-La Roche Inc., priority 2011, dated 2016).

How the values were obtained:
[1] = target: human CB1 receptors (Homo sapiens (Human), UniProt P21554); assay: cAMP assay, CHO cells expressing human CB1 receptors; type: cell-based; details: CHO cells expressing human CB1, cAMP; read-out: human CB1 EC50
Procedure, shortened: (§1)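 Whole CHO cells were preincubated in Krebs Ringer bicarbonate buffer with 1 mM IBMX for 30 min at 30 °C, then exposed to compounds for 30 min at 30 °C. cAMP was quantified by time-resolved FRET (cAMP-Nano-TRF) against a standard curve, and EC50 values were derived.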

[2] = target: human CB2 receptors (Homo sapiens (Human), UniProt P34972); assay: cAMP assay, CHO cells expressing human CB2 receptors; type: cell-based; details: CHO cells expressing human CB2, cAMP; read-out: human CB2 EC50
Procedure, shortened: as §1

Sequence of human CB2 receptors (P34972 whole entry): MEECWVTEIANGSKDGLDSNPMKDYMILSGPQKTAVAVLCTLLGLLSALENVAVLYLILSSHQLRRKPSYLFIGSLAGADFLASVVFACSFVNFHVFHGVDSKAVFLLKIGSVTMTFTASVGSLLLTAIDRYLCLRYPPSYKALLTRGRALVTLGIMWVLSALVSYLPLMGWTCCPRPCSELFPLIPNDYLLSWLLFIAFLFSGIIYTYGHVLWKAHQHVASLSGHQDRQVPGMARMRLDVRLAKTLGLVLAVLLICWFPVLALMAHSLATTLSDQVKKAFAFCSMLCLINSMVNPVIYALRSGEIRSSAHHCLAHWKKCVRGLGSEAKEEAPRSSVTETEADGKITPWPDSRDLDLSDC
Sequence of human CB1 receptors (P21554 whole entry): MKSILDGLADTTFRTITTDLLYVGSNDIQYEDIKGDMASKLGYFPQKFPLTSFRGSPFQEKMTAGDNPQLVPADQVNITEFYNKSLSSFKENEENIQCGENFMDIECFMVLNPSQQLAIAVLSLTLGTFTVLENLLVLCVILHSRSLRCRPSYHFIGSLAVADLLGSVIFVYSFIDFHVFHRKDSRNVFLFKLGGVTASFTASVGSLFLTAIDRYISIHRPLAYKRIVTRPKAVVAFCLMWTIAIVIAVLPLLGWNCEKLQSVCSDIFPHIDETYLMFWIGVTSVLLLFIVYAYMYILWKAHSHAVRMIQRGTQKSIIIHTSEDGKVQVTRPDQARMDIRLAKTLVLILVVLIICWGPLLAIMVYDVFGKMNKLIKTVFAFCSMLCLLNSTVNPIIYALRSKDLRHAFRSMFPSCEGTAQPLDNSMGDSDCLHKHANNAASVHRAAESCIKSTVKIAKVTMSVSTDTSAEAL

| SMILES | EC50 [1] [nM] | EC50 [2] [nM] |
| --- | --- | --- |
| CC(C)C[C@@H](CNc1ccc([N+](=O)[O-])c2nonc12)NC(=O)c1ccc(N2CCCC2)c(OCC2CC2)n1 [Example 344, 6-Cyclopropylmethoxy-5-pyrrolidin-1-yl-pyridine-2-carboxylic acid {(S)-3-methyl-1-[(7-nitro-benzo[1,2,5]oxadiazol-4-ylamino)-methyl]-butyl}-amide] | > 10000 | 25.6 |
| NC(=O)[C@@H](NC(=O)c1ccc(C2CC2)c(OCC2CC2)n1)C1CC1 [Example 374, 5-Cyclopropyl-6-cyclopropylmethoxy-pyridine-2-carboxylic acid ((+)-carbamoyl-cyclopropyl-methyl)-amide] | > 10000 | 28.1 |
| CC(C)CS(=O)(=O)c1nc(C(=O)N[C@@H](c2cccnc2)C(F)(F)F)ccc1C1CC1 [Example 365, 5-Cyclopropyl-6-(2-methyl-propane-1-sulfonyl)-pyridine-2-carboxylic acid ((S)-2,2,2-trifluoro-1-pyridin-3-yl-ethyl)-amide] | > 10000 | 13.9 |
| Cn1c(C(C)(C)NC(=O)c2ccc(C3CC3)c(OCC3CC3)n2)noc1=O [Example 338, 5-Cyclopropyl-6-cyclopropylmethoxy-pyridine-2-carboxylic acid [1-methyl-1-(4-methyl-5-oxo-4,5-dihydro-[1,2,4]oxadiazol-3-yl)-ethyl]-amide] | > 10000 | 534 |
| CC(C)(C)NC(=O)c1ccc(C2CC2)c(OCC2CCCO2)n1 (stereo not shown) [Example 369, 5-Cyclopropyl-6-(tetrahydro-furan-2-ylmethoxy)-pyridine-2-carboxylic acid tert-butylamide] | > 10000 | 12 |
| CCC(CC)(NC(=O)c1cccc(OCC(F)(F)C(F)(F)F)n1)C(=O)NC [Example 297, 6-(2,2,3,3,3-Pentafluoro-propoxy)-pyridine-2-carboxylic acid (1-ethyl-1-methylcarbamoyl-propyl)-amide] | > 10000 | 962 |
| NC(=O)[C@H](NC(=O)c1ccc(N2CC(F)(F)C2)c(OCC2CC2)n1)C1CC1 [Example 377, 6-Cyclopropylmethoxy-5-(3,3-difluoro-azetidin-1-yl)-pyridine-2-carboxylic acid ((−)-carbamoyl-cyclopropyl-methyl)-amide] | > 10000 | 178 |
| CC(C)C[C@H](NC(=O)c1ccc(C2CC2)c(Cc2ccc(F)cc2)n1)C(N)=O [Example 155, 5-Cyclopropyl-6-(4-fluoro-benzyl)-pyridine-2-carboxylic acid ((S)-1-carbamoyl-3-methyl-butyl)-amide] | 123 | 0.7 |
| NC(=O)[C@@H](NC(=O)c1ccc(C2CC2)c(OCC2CC2)n1)c1ccccc1 [Example 172, (S)-N-(2-Amino-2-oxo-1-phenylethyl)-5-cyclopropyl-6-(cyclopropylmethoxy)picolinamide] | > 10000 | 10.1 |
| Cc1ccc(C(=O)NN2CCCCC2)nc1-c1cccc(Cl)c1 [Example 52, 6-(3-Chloro-phenyl)-5-methyl-pyridine-2-carboxylic acid piperidin-1-yl-amide] | > 10000 | 322 |
| CCC(CC)(NC(=O)c1ccc(C2CC2)c(OCC[C@H](O)C(F)(F)F)n1)C(=O)NC [Example 320, 5-Cyclopropyl-6-((S)-4,4,4-trifluoro-3-hydroxy-butoxy)-pyridine-2-carboxylic acid (1-ethyl-1-methylcarbamoyl-propyl)-amide] | 323 | 4.4 |
| CC(C)(NC(=O)c1ccc(C2CC2)c(OCC2CC2)n1)c1nccs1 [Example 44, 5-Cyclopropyl-6-cyclopropylmethoxy-pyridine-2-carboxylic acid (1-methyl-1-thiazol-2-yl-ethyl)-amide] | 1610 | 13.5 |
| Cc1nc([C@H](CC2CC2)NC(=O)c2ccc(C3CC3)c(OCC(F)(F)C(F)(F)F)n2)no1 [Example 300, 5-Cyclopropyl-6-(2,2,3,3,3-pentafluoro-propoxy)-pyridine-2-carboxylic acid [(S)-2-cyclopropyl-1-(5-methyl-[1,2,4]oxadiazol-3-yl)-ethyl]-amide] | > 10000 | 31.8 |
| Cc1nc([C@H](NC(=O)c2ccc(C3CC3)c(OCC3CC3)n2)C2CC2)no1 [Example 197, (−)-5-Cyclopropyl-6-cyclopropylmethoxy-pyridine-2-carboxylic acid [cyclopropyl-(5-methyl-[1,2,4]oxadiazol-3-yl)-methyl]-amide] | > 10000 | 33.2 |
| Cc1nc([C@H](CC(C)C)NC(=O)c2cccc(S(=O)(=O)CC(C)C)n2)no1 [Example 335, 6-(2-Methyl-propane-1-sulfonyl)-pyridine-2-carboxylic acid [(S)-3-methyl-1-(5-methyl-[1,2,4]oxadiazol-3-yl)-butyl]-amide] | > 10000 | 962 |
| CC1(C)CCc2ccc(C(=O)NC[C@](C)(O)C3CC3)nc2C1 [Example 143, 7,7-Dimethyl-5,6,7,8-tetrahydro-quinoline-2-carboxylic acid ((R)-2-cyclopropyl-2-hydroxy-propyl)-amide] | > 10000 | 410 |
| O=C(NNC1CCS(=O)(=O)C1)c1ccc(N2CC(F)(F)C2)c(OCC2CC2)n1 (stereo not shown) [Example 293, 6-Cyclopropylmethoxy-5-(3,3-difluoro-azetidin-1-yl)-pyridine-2-carboxylic acid N′-(1,1-dioxo-tetrahydro-1λ^6-thiophen-3-yl)-hydrazide] | > 10000 | 790 |
| CC(C)C[C@H](C#N)NC(=O)c1ccc(C2CC2)c(OCC2CC2)n1 [Example 247, 5-Cyclopropyl-6-cyclopropylmethoxy-pyridine-2-carboxylic acid ((−)-1-cyano-3-methyl-butyl)-amide] | > 10000 | 5.6 |
| CNC(=O)[C@@H](NC(=O)c1ccc(C2CC2)c(OCc2ccccn2)n1)C(C)(C)C [Example 201, (S)-5-Cyclopropyl-N-(3,3-dimethyl-1-(methylamino)-1-oxobutan-2-yl)-6-(pyridin-2-ylmethoxy)picolinamide] | > 10000 | 26.7 |
| O=C(NC1CCOCC1)c1cccc(-c2cccc(Cl)c2)n1 [Example 21, 6-(3-Chloro-phenyl)-pyridine-2-carboxylic acid (tetrahydro-pyran-4-yl)-amide] | > 10000 | 220 |
| O=C(NC1(C(F)(F)F)CC1)c1ccc(N2CC(F)(F)C2)c(OCC2CC2)n1 [Example 378, 6-Cyclopropylmethoxy-5-(3,3-difluoro-azetidin-1-yl)-pyridine-2-carboxylic acid (1-trifluoromethyl-cyclopropyl)-amide] | > 10000 | 6.4 |
| CC(C)C[C@H](NC(=O)c1ccc(C2CC2)c(OCC2CC2)n1)C(=O)N(C)C [Example 231, 5-Cyclopropyl-6-cyclopropylmethoxy-pyridine-2-carboxylic acid ((S)-1-dimethylcarbamoyl-3-methyl-butyl)-amide] | 678 | 1.4 |
| CCOC(=O)C(CC)(CC)NC(=O)c1ccc(C2CC2)c(OCC2CC2)n1 [Example 257, 2-[(5-Cyclopropyl-6-cyclopropylmethoxy-pyridine-2-carbonyl)-amino]-2-ethyl-butyric acid ethyl ester] | 347 | 2.3 |
